A word on the IC50: it is the midpoint of a concentration-inhibition curve.

Results on 24 compounds are retold here after US8378104B2 (OSI Pharmaceuticals, LLC, priority 2010, dated 2013).

Structures can show the parent of a compound that is named as a salt.

The assay concerns the target T1, TAK1-TAB1 fusion protein (Homo sapiens, UniProt O43318).
T1 construct: purchased Carna
T1 sequence (O43318 with tags, fused parts or gaps limits assumed): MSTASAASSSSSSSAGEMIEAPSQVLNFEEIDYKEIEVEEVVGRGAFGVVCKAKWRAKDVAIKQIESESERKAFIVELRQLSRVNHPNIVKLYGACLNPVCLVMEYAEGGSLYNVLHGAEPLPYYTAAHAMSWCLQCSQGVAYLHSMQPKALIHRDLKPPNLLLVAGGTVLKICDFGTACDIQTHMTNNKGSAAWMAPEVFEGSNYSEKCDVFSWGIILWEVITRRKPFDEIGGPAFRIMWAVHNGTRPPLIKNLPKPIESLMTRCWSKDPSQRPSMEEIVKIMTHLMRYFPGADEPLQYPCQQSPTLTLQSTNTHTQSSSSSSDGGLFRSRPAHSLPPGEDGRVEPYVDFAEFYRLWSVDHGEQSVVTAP
Briefly: TAK1 biochemical assay (AlphaScreen, GST-MAP2K7 substrate). The settings on record: TAK1-TAB1 fusion protein, GST-MAP2K7 substrate; read-out: mean TAK1 IC50 (Col. A). (Bead proximity is the source of the signal in Alpha formats.)
Take `Nc1ccc(-c2nc(-c3cc4c(-c5cnn(C6CCNCC6)c5)cnc(N)c4o3)ccc2N)nc1Cl` [Example 30, 6-{7-amino-4-[1-(piperidin-4-yl)-1H-pyrazol-4-yl]furo[2,3-c]pyridine-2-yl}-6′-chloro-2,2′-bipyridine-3,5′-diamine]: the IC50 was in the range of 100 to 1000 nM.

With `Nc1ncc(-c2ccc(-c3ccccc3)s2)c2cc(-c3csc4cnccc34)oc12` [Example 385, 4-(5-phenyl-thiophen-2-yl)-2-thieno[2,3-c]pyridin-3-yl-furo[2,3-c]pyridin-7-ylamine], the IC50 is over 10000 nM.

As to `CC(=O)N1CCC(n2cc(-c3cnc(N)c4oc(-c5cccc(S(=O)(=O)N(C)C)c5)cc34)cn2)CC1` [Example 134, 3-{4-[1-(1-acetylpiperidin-4-yl)-1H-pyrazol-4-yl]-7-aminofuro[2,3-c]pyridin-2-yl}-N,N-dimethylbenzenesulfonamide], the IC50 is 1000 to 10000 nM.

With `COC(=O)c1cc2cccc(-c3cc4c(-c5cnn(C6CCNCC6)c5)cnc(N)c4o3)c2s1` [Example 48, methyl 7-{7-amino-4-[1-(piperidin-4-yl)-1H-pyrazol-4-yl]furo[2,3-c]pyridine-2-yl}-1-benzothiophene-2-carboxylate], the IC50 was in the range of 100 to 1000 nM.

In the case of `CC(=O)N1CCC(n2cc(-c3cnc(N)c4oc(-c5c(-c6ccccc6)sc6cnccc56)cc34)cn2)CC1` [Example 263, 1-(4-{4-[7-amino-2-(2-phenylthieno[2,3-c]pyridin-3-yl)furo[2,3-c]pyridin-4-yl]-1H-pyrazol-1-yl}piperidin-1-yl)ethanone trifluoroacetate], the IC50 is 100 to 1000 nM.

Consider `Cc1ccc(-c2cnc(N)c3oc(-c4csc5cnccc45)cc23)s1` [Example 386, 4-(5-methyl-thiophen-2-yl)-2-thieno[2,3-c]pyridin-3-yl-furo[2,3-c]pyridin-7-ylamine], for which the IC50 lay within 1000 to 10000 nM.

For `CC(=O)N1CCC(n2cc(-c3cnc(N)c4oc(-c5ccc6c(c5)NC(=O)C6)cc34)cn2)CC1` [Example 144, 6-{4-[1-(1-acetylpiperidin-4-yl)-1H-pyrazol-4-yl]-7-aminofuro[2,3-c]pyridin-2-yl}-1,3-dihydro-2H-indol-2-one], the IC50 is 1000 to 10000 nM.

As for `Nc1ncc(-c2cscn2)c2cc(-c3csc4cnccc34)oc12` [Example 396, 4-thiazol-4-yl-2-thieno[2,3-c]pyridin-3-yl-furo[2,3-c]pyridin-7-ylamine], the IC50 lay in the range of 1000 to 10000 nM.

Consider `COCc1ccccc1-c1cc2c(-c3cnn(C4CCN(C(C)=O)CC4)c3)cnc(N)c2o1` [Example 195, 1-[4-(4-{7-amino-2-[2-(methoxymethyl)phenyl]furo[2,3-c]pyridin-4-yl}-1H-pyrazol-1-yl)piperidin-1-yl]ethanone], for which the IC50 was 1000 to 10000 nM.

With `Nc1ncc(-c2cnn(C3CCNCC3)c2)c2cc(C3=CCNCC3)oc12` [Example 49, 4-[1-(piperidin-4-yl)-1H-pyrazol-4-yl]-2-(1,2,3,6-tetrahydropyridin-4-yl)furo[2,3-c]pyridin-7-amine dihydrochloride], the IC50 is 1000 to 10000 nM.

Take `Nc1ncc(-c2cnn(C3CNC3)c2)c2cc(-c3cccc4cnccc34)oc12` [Example 64, 4-[1-(azetidin-3-yl)-1H-pyrazol-4-yl]-2-(isoquinolin-5-yl)furo[2,3-c]pyridin-7-amine]: the IC50 is 100 to 1000 nM.

With `CC(=O)N1CCC(n2cc(-c3cnc(N)c4oc(-c5cccc(OCc6cccc(Cl)c6)c5)cc34)cn2)CC1` [Example 201, 1-{4-[4-(7-amino-2-{3-[(3-chlorobenzyl)oxy]phenyl}furo[2,3-c]pyridin-4-yl)-1H-pyrazol-1-yl]piperidin-1-yl}ethanone], the IC50 was over 10000 nM.

Consider `CC(=O)N1CCC(n2cc(-c3cnc(N)c4oc(-c5ccc(C#N)cc5)cc34)cn2)CC1` [Example 170, 4-{4-[1-(1-acetylpiperidin-4-yl)-1H-pyrazol-4-yl]-7-aminofuro[2,3-c]pyridin-2-yl}benzonitrile], for which the IC50 was 1000 to 10000 nM.

With `CC(=O)N1CCC(n2cc(-c3cnc(N)c4oc(-c5ccccc5C(F)(F)F)cc34)cn2)CC1` [Example 411, 1-[4-(4-{7-amino-2-[2-(trifluoromethyl)phenyl]furo[2,3-c]pyridin-4-yl}-1H-pyrazol-1-yl)piperidin-1-yl]ethanone], the IC50 was over 10000 nM.

Turning to `Nc1ncc(-c2cnn(C3CCNCC3)c2)c2cc(-c3cncc4ccccc34)oc12` [Example 34, 2-(isoquinolin-4-yl)-4-[1-(piperidin-4-yl)-1H-pyrazol-4-yl]furo[2,3-c]pyridine-7-amine], the IC50 lay within 1000 to 10000 nM.

In the case of `CC(=O)N1CCC(n2cc(-c3cnc(N)c4oc(-c5cccc(S(N)(=O)=O)c5)cc34)cn2)CC1` [Example 102, 3-{4-[1-(1-acetylpiperidin-4-yl)-1H-pyrazol-4-yl]-7-aminofuro[2,3-c]pyridin-2-yl}benzenesulfonamide], the IC50 is 1000 to 10000 nM.

With `CC(=O)N1CCC(n2cc(-c3cnc(N)c4oc(-c5cccc(C(N)=O)c5)cc34)cn2)CC1` [Example 122, 3-{4-[1-(1-acetylpiperidin-4-yl)-1H-pyrazol-4-yl]-7-aminofuro[2,3-c]pyridin-2-yl}benzamide], the IC50 lay in the range of 100 to 1000 nM.

With `CC(=O)N1CCC(n2cc(-c3cnc(N)c4oc(-c5ccc6cn[nH]c6c5)cc34)cn2)CC1` [Example 99, 1-(4-{4-[7-amino-2-(1H-indazol-6-yl)furo[2,3-c]pyridin-4-yl]-1H-pyrazol-1-yl}piperidin-1-yl)ethanone], the IC50 is 100 to 1000 nM.

On to `CC(=O)N1CCC(n2cc(-c3cnc(N)c4oc(-c5ccc(NS(C)(=O)=O)cc5)cc34)cn2)CC1` [Example 121, N-(4-{4-[1-(1-acetylpiperidin-4-yl)-1H-pyrazol-4-yl]-7-aminofuro[2,3-c]pyridin-2-yl}phenyl)methanesulfonamide], for which the IC50 lay within 1000 to 10000 nM.

With `Nc1ncc(-c2cnn(C3CCNCC3)c2)c2cc(-c3cc(F)cc(F)c3)oc12` [Example 8, 2-(3,5-difluorophenyl)-4-[1-(piperidin-4-yl)-1H-pyrazol-4-yl]furo[2,3-c]pyridin-7-amine], the IC50 is 1000 to 10000 nM.

`CNc1ncc(-c2cnn(C3CCN(C(C)=O)CC3)c2)c2cc(-c3cccc4cnsc34)oc12` [Example 279, 1-(4-{4-[2-(1,2-benzothiazol-7-yl)-7-(methylamino)furo[2,3-c]pyridin-4-yl]-1H-pyrazol-1-yl}piperidin-1-yl)ethanone trifluoroacetate]: the IC50 lay in the range of 100 to 1000 nM.

In the case of `CC(=O)N1CCC(n2cc(-c3cnc(N)c4oc(-c5cccc(OCc6ccncc6)c5)cc34)cn2)CC1` [Example 203, 1-[4-(4-{7-amino-2-[3-(pyridin-4-ylmethoxy)phenyl]furo[2,3-c]pyridin-4-yl}-1H-pyrazol-1-yl)piperidin-1-yl]ethanone], the IC50 was in the range of 100 to 1000 nM.

Consider `CCNc1ncc(-c2cnn(C3CCN(C(C)=O)CC3)c2)c2cc(-c3csc4cnccc34)oc12` [Example 277, 1-(4-{4-[7-(ethylamino)-2-(thieno[2,3-c]pyridin-3-yl)furo[2,3-c]pyridin-4-yl]-1H-pyrazol-1-yl}piperidin-1-yl)ethanone trifluoroacetic acid salt], for which the IC50 fell in the range of 1000 to 10000 nM.

On to `CC(=O)N1CCC(n2cc(-c3cnc(N)c4oc(-c5cccc(C(F)(F)F)c5)cc34)cn2)CC1` [Example 185, 1-[4-(4-{7-amino-2-[3-(trifluoromethyl)phenyl]furo[2,3-c]pyridin-4-yl}-1H-pyrazol-1-yl)piperidin-1-yl]ethanone], for which the IC50 is 1000 to 10000 nM.
